Source: patent US7842470B2, “Method for pharmacoperones correction of GnRHR mutant protein misfolding” (Oregon Health & Science University, priority 2001, dated 2010)
Substitutions are numbered along the chain they refer to.

Experiments:
mutant GnRHR = biological target: T1, mutant GnRHR (Homo sapiens, UniProt P30968, E90K); assay: Pharmacological rescue of GnRHR mutants (Example 1), IP production and agonist binding; format: cell-based
T1 construct: expressed in transfected cells; host or cells: COS-7
T1 sequence (P30968 1-328 E90K): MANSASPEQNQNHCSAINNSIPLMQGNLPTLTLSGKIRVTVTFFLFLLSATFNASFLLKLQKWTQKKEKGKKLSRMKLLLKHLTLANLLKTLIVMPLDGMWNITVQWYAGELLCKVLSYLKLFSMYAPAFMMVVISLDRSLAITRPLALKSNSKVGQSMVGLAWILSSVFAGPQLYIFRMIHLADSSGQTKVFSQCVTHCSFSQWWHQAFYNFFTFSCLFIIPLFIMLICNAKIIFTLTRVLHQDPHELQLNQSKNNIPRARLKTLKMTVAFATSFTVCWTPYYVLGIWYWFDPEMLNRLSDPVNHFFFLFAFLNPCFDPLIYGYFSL
Experimental: WT and mutant hGnRHR were separately transiently expressed in COS-7 cells using standard molecular biology methods (Leaños-Miranda et al., J. Clin. Endo. Metab., 87:4825-8, 2002). Briefly, cells were maintained in growth medium (DMEM) containing 10% fetal calf serum (FCS; Life Technologies, Grand Island, N.Y.) and 20 μg/ml gentamicin (Gemini Bioproducts, Calabasas, Calif.) in a 5% CO2 humidified atmosphere at 37° C. One hundred thousand cells/well were seeded in 24-well plates (Costar, Cambridge, Mass.). Twenty-four hours after plating, the cells were transfected with 0.05 μg DNA per well (for IP production assay) or 0.1 μg DNA per well (for saturation binding studies) using 2 μl lipofectamine in 0.25 ml OPTI-MEM containing 1% DMSO (vehicle) or 1 μg/ml of each indole, quinoline or erythromycin macrolide prepared in vehicle.
After five hours, 0.25 ml of DMEM containing 20% FCS with or without indole, quinoline or erythromycin macrolide (as indicated) was added to each well. The cells were incubated for an additional 18 hours at 37° C., then washed and fresh growth medium with (1 μg/ml) or without the therapeutic agent was added to the cells for another 28 hours at 37° C. […]
The quantification of IP production and saturation binding were determined as described previously (Huckle and Conn, Methods Enzymol. 141:149-55, 1987).
To determine the saturation binding, the cells were washed twice with warm DMEM/BSA prior to incubating with the GnRH agonist [^125I]-buserelin [D-tert-butyl-Ser^6, des-Gly^10, Pro^9, ethylamide-GnRH; specific activity, 700 μCi/μg; 230,000 cpm/0.5 ml, pH 7.4; Hoeschst-Roussel Pharmaceuticals (Somerville, N.J.); also see Marian et al., Mol. Pharmacol. 19:399-405, 1981] and nonspecific binding was measured in the presence of 1 μM GnRH (NIDDK National Hormone and Peptide Program, Bethesda, Md.). […] The sample was transferred to a glass tube and counted in a gamma counter (Packard Instruments; Downers Grove, Ill.). Specific binding was calculated by subtracting non-specific binding (binding measured in the presence of 1 μM GnRH) from total binding (no GnRH). […]

WT hGnRHR = biological target: T2, WT hGnRHR (Homo sapiens, UniProt P30968); assay: IP production in COS-7 cells transfected with WT hGnRHR, Buserelin dose response (FIG. 13 inset); format: cell-based; conditions: COS-7 cells transfected with 100 ng of WT hGnRHR
T2 construct: expressed in transfected cells; host or cells: COS-7
T2 sequence (P30968 1-328): T1 sequence (P30968 1-328 E90K) with K90E
Experimental: For tranfections, 5×10^4 COS-7 cells were plated in 0.25 ml growth medium in 48 well Costar cell culture plates. Twenty-four hours after plating, the cells were washed once with 0.5 ml OPTI-MEM (Promega, Madison, Wis.) then transfected with 100 ng total cDNA (pcDNA3.1+without insert “empty vector” was included to bring the total cDNA to 100 ng/well, unless otherwise indicated) and 1 μl lipofectamine in 0.125 ml OPTI-MEM (room temperature), according to manufacture's instructions. For co-transfection, the cells were co-transfected with WT GnRHR (5 ng/well) and empty vector or mutant GnRHR (95 ng/well) or other GPCR cDNAs, as indicated, using 1 μl Lipofectamine (Promega, Madison, Wis.) in 0.125 ml Opti-MEM. Constant amounts of Opti-MEM were achieved by the addition of sterile milli-Q H2O to the cDNA mixtures. […]
The IP production was measured 27 hours after transfection, as described in Example 1, except that following the preloading, cells were treated for 2 hours in 0.25 ml of Buserelin (100 nM), and at the end of the incubation period, the cells were frozen and thawed in the presence of 0.5 ml of 0.1 M formic acid. Data (n≧3) was analyzed with one-way ANOVA and then paired Student's t-test (SigmaStat 3.0, Jandel Scientific Software, Chicago, Ill.; P<0.05 was considered significant). […]

Structure (SMILES) | restoration of function to mutant GnRHR (mutant GnRHR) | Buserelin concentration giving maximal response on IP production (WT hGnRHR)
CC[C@H]1OC(=O)[C@H](C)[C@@H](O[C@H]2C[C@@](C)(OC)[C@@H](O)[C@H](C)O2)[C@H](C)[C@@H](O[C@@H]2O[C@H](C)C[C@H](N(C)C)[C@H]2O)[C@](C)(O)C[C@@H](C)C(=O)[C@H](C)[C@@H](O)[C@]1(C)O [A-7662.0, Erythromycin A] | known not to bind to or restore function to mutant protein | 
CCNC(=O)[C@@H]1CCCN1C(=O)[C@H](CCCNC(=N)N)NC(=O)[C@H](CC(C)C)NC(=O)[C@@H](COC(C)(C)C)NC(=O)[C@H](Cc1ccc(O)cc1)NC(=O)[C@H](CO)NC(=O)[C@H](Cc1c[nH]c2ccccc12)NC(=O)[C@H](Cc1cnc[nH]1)NC(=O)[C@@H]1CCC(=O)N1 [Buserelin, D-tert-butyl-Ser^6, des-Gly^10, Pro^9, ethylamide-GnRH] |  | 10^−7 M
Cc1cc(C)cc(-c2[nH]c3ccc(C(C)(C)C(=O)N4CCN(C)CC4)cc3c2[C@H](C)CNCCc2ccc(C(=O)O)cc2)c1.O=C(O)C(F)(F)F [IN31b, (2S)-N-[2-(4-carboxyphenyl)ethyl]-2-[5-[1,1-dimethyl-2-(4-methylpiperazin-1-yl)-2-oxoethyl]-2-(3,5-dimethylphenyl)-1H-indol-3-yl]propan-1-aminium trifluoroacetate] | known not to bind to or restore function to mutant protein | 
COc1cc2c(cc1OC)CN(C(=O)c1cc3c(OCC[C@@H]4CCCCN4)c(-c4cc(C)cc(C)c4)c(=O)[nH]c3cc1Cl)CC2.O=C(O)C(F)(F)F [Q08, (2S)-2-(2-{[7-chloro-6-[(6,7-dimethoxy-3,4-dihydroisoquinolin-2(1H)-yl)carbonyl]-3-(3,5-dimethylphenyl)-2-oxo-1,2-dihydroquinolin-4-yl]oxy}ethyl)piperidinium trifluoroacetate] | known not to bind to or restore function to mutant protein | 
